Results as given in article PMC8903829 (eLife, 2022).
“And” between values parts separate entries of the source, which are not always exact repeats. Equal entries are not always repeated. Where two headings read alike, the source gives them in different places.

Tests used:
Scn8a^N1768D/+ mice = experiment: Modified 6 Hz psychomotor seizure assay; assay type: in vivo, mouse; conditions: for SCN8a mouse 6Hz chronic, Fraction of animals seizing: day 7, 2 hr after 13th dose; for SCN8a mouse 6Hz acute, Fraction of animals seizing: 2 hr; for EC50: Scn8a^N1768D/+ 6 Hz model
Procedure: Phenytoin was formulated in physiologic saline and was administered intraperitoneally (i.p.) using a 25-gauge needle at a dose volume of 10 mL/kg. All compounds were administered 2 hr prior to electrical seizure induction for all seizure models employed in this study.
Scn8a^N1768D/+heterozygous mice were tested at 5 weeks of age (p35). The modified 6 Hz seizure assay in Scn8a^N1768D/+heterozygous mice was adapted from the traditional 6 Hz assay psychomotor seizure assay to provide a measure of in vivo on target (NaV1.6 mediated) efficacy ([Barton et al., 2001]). The modified assay used a low frequency (6 Hz) but long-duration stimulation (3 s) to induce seizures. […] An electroshock (6 Hz, 12 mA) was delivered for 3 s (at 0.3-ms pulse interval) by corneal electrodes (Electro Convulsive Therapy Unit 57,800 from Ugo Basile). Immediately prior to the electroshock, the animals’ eyes were anesthetized with a drop of Alcaine (0.5% proparacaine hydrochloride).
An animal was considered protected in the assay upon prevention of GTC with hindlimb extension and was then scored ‘0’. An animal displaying GTC with hindlimb extension was considered not protected and is then scored ‘1’. The experimenter scoring the seizure behavior was blinded to the treatment.

Sprague Dawley rats = experiment: Observation of potential adverse behavior (behavioral signs) in the rat DC-MES studies; assay type: in vivo; conditions: rat
Procedure: Animals were observed by the scientist(s) responsible for dosing for the first 30 min after dosing for and again at the time of assay (2 hr post dose) for signs of abnormal behavior.

[1] = Bioanalytical assessment of plasma and brain concentrations after 6 Hz assay; assay type: in vivo, mouse; conditions: for Mean [Plasma] / Mean [Brain] / concentration at 2 hr: Scn8a mice; for concentration at 2 hr: mouse, po
Procedure: (§1) Approximately 0.5 mL of blood was collected from each mouse at the end of the assay via cardiac puncture under deep anesthesia. The blood samples were collected in a syringe and transferred to tubes containing EDTA. Blood was stored at 4 °C until centrifuged within 30 min of collection. Plasma was harvested and placed on dry ice and stored in a freezer set to maintain a temperature of –70°C to –80°C until analysis. Brains were harvested immediately after blood collection and placed on dry ice prior to storage in a freezer set to maintain a temperature of –70°C to –80°C until analysis.
(§2) Extraction of plasma samples was carried out by protein precipitation using acetonitrile. Plasma samples (50 µL) were mixed with 50 µL of internal standard (IS) solution in water followed by addition of 10 µL of concentrated ortho-phosphoric acid and 200 µL of acetonitrile. Samples were vortexed for 30 seconds, centrifuged at 13,000 rpm for 20 min, decanted in to a 96-well plate, and further centrifuged at 4000 rpm for 20 min. The samples were analyzed by UHPLC-ESI-MS/MS as described below.
(§3) Prior to extraction, pre-weighed whole brains were homogenized in 1:1 acetonitrile/water (v/v) (4 mL per mouse brain) using an IKA T18 ULTRA-TURRAX Homogenizer at the setting of 4 for approximately 2 min. The homogenate was centrifuged at 13,000 rpm for 20 min and 50 µL of the supernatant were treated exactly as described above for plasma samples. […]
(§4) Samples were analyzed by UHPLC-ESI MS/MS using a TQ-5500 Sciex triple quadrupole mass spectrometer equipped with a Shimadzu Nexera UHPLC pump and auto-sampler system using an ACE C18 PFP, 2.50 × 50 mm, 1.7 µm particle size column and gradient elution consisting of solvent A (0.1% formic acid in water) and solvent B (0.1% formic acid in acetonitrile) starting at 20% B from 0 min to 0.4 min and then increased to 100% B from 0.4 min to 0.6 min. At 2.0 min, the mobile phase composition was switched back to […] for 1 min. The flow rate used throughout the experiment was […]. […] The UHPLC-ESI MS/MS system was controlled by Analyst 1.6.
(§5) Sample concentrations were determined using a linear calibration function, weighted 1 /X, generated by the regression of analyte to IS peak area ratios in the standard samples to their respective concentrations. Acceptance criteria for the analytical run required that the back calculated values of the standards and the QC samples fell within ±20% of their nominal values, except for the lowest standard or lower limit of quantitation (LLOQ), for which the acceptance criterion was ±25%. At least 6 out of 12 standard points had to show back-calculated values within ±20% of their nominal concentrations for the calibration to be accepted. At least three QC samples, one at each level, had to show back-calculated values within ±20% of their nominal concentrations for the whole sample batch to be valid.

[2] = Bioanalytical assessment of plasma and brain concentrations after mouse DC-MES assay; assay type: in vivo; conditions: WT mice; for concentration at 2 h: mouse, po
Procedure: as §1, §2, §3, §4, §5

[3] = 6 mg/kg PO every 12 hr, day 7, 2 hr after 13th dose, 6 mg/kg
[4] = 100 mg/kg PO single dose, after assay 2 hr post dose, 100 mg/kg
[5] = 3 mg/kg PO every 12 hr, day 7, 2 h after 13th dose, 3 mg/kg
[6] = 5 mg/kg PO every 12 hr, day 7, 2 h after 13th dose, 5 mg/kg
[7] = 10 mg/kg PO single dose, 2 h, 10 mg/kg

Cc1cc(S(=O)(=O)Nc2cscn2)c(F)cc1N(C)[C@H]1CCN(Cc2ccccc2)C1 [NBI-921352]
SCN8a mouse 6Hz chronic, Fraction of animals seizing (Scn8a^N1768D/+ mice; 2 mg/kg PO every 12 hr): 0.5
SCN8a mouse 6Hz acute, Fraction of animals seizing (Scn8a^N1768D/+ mice; 2 mg/kg PO single dose): 0.8
SCN8a mouse 6Hz acute, Fraction of animals seizing (Scn8a^N1768D/+ mice; 3 mg/kg PO single dose): 0.8
SCN8a mouse 6Hz chronic, Fraction of animals seizing (Scn8a^N1768D/+ mice; 6 mg/kg PO every 12 hr): 0.34 and 0.429 and 0.5
SCN8a mouse 6Hz acute, Fraction of animals seizing (Scn8a^N1768D/+ mice; 6 mg/kg PO single dose): 0.5 and 0.667 and 0.834 and 0.715
SCN8a mouse 6Hz acute, Fraction of animals seizing (Scn8a^N1768D/+ mice; 10 mg/kg PO single dose): 0.57 and 0.4
SCN8a mouse 6Hz acute, Fraction of animals seizing (Scn8a^N1768D/+ mice; 30 mg/kg PO single dose): 0.43 and 0.5 and 0.333 and 0.4
SCN8a mouse 6Hz acute, Fraction of animals seizing (Scn8a^N1768D/+ mice; 200 mg/kg PO single dose): 0
SCN8a mouse 6Hz acute, Fraction of animals seizing (Scn8a^N1768D/+ mice; 300 mg/kg PO single dose): 0
EC50 (Scn8a^N1768D/+ mice; Mus musculus, 2 hr post dose (oral; phenytoin i.p.), read-out: brain EC50): 64 nM
EC50 (Scn8a^N1768D/+ mice; Mus musculus, 2 hr post dose, read-out: plasma EC50): 37 nM
ED50 (Scn8a^N1768D/+ mice; Mus musculus, oral, 2 hr prior to stimulation, read-out: ED50, prevention of GTC with hindlimb extension): 15 mg/kg
minimal plasma concentration provoking behavioral signs (BSC) (Sprague Dawley rats): 71 µM
Mean [Plasma] ([1]; 3 mg/kg PO single dose, after assay 2 hr post dose, 3 mg/kg): 0.003985 µM
Mean [Brain] [1, 3]: 0.02201 µM and 0.01923 µM
Mean [Plasma] [1, 3]: 0.01663 µM and 0.02029 µM
Mean [Plasma] ([1]; 10 mg/kg PO single dose, after assay 2 hr post dose, 10 mg/kg): 0.01541 µM
Mean [Brain] ([1]; 30 mg/kg PO single dose, after assay 2 hr post dose, 30 mg/kg): 0.133 µM and 0.1224 µM and 0.09287 µM and 0.1253 µM
Mean [Brain] [1, 4]: 0.3467 µM
Mean [Plasma] [1, 4]: 0.5385 µM
concentration at 2 hr ([1]; Scn8a^N1768D/+ (heterozygous gain-of-function knock-in line), brain, 30 mg/kg, 30 mg/kg PO single dose, after assay 2 hr post dose, read-out: Mean [Brain]): 96.6 nM
concentration at 2 hr ([1]; Scn8a^N1768D/+ (heterozygous gain-of-function knock-in line), brain, 100 mg/kg, 100 mg/kg PO single dose, after assay 2 hr post dose, read-out: Mean [Brain]): 357 nM
concentration at 2 hr ([1]; Scn8a^N1768D/+ (heterozygous gain-of-function knock-in line), plasma, 3 mg/kg, 3 mg/kg PO single dose, after assay 2 hr post dose, read-out: Mean [Plasma]): 3.45 nM
concentration at 2 hr ([1]; Scn8a^N1768D/+ (heterozygous gain-of-function knock-in line), plasma, 10 mg/kg, 10 mg/kg PO single dose, after assay 2 hr post dose, read-out: Mean [Plasma]): 9.56 nM
concentration at 2 hr ([1]; Scn8a^N1768D/+ (heterozygous gain-of-function knock-in line), plasma, 100 mg/kg, 100 mg/kg PO single dose, after assay 2 hr post dose, read-out: Mean [Plasma]): 717 nM
concentration at 2 hr ([1]; Scn8a^N1768D/+, brain, 2 mg/kg, 2 mg/kg PO every 12 hr, day 7, 2 hr after 13th dose, read-out: Mean [Brain]): 10.5 nM
concentration at 2 hr ([1]; Scn8a^N1768D/+, brain, 2 mg/kg, 2 mg/kg PO single dose, after assay 2 hr post dose, read-out: Mean [Brain]): 8.02 nM
concentration at 2 hr ([1]; Scn8a^N1768D/+, brain, 6 mg/kg, 6 mg/kg PO every 12 hr, day 7, 2 hr after 13th dose, read-out: Mean [Brain]): 28.8 nM
concentration at 2 hr ([1]; Scn8a^N1768D/+, brain, 200 mg/kg, 200 mg/kg PO single dose, after assay 2 hr post dose, read-out: Mean [Brain]): 3850 nM
concentration at 2 hr ([1]; Scn8a^N1768D/+, brain, 300 mg/kg, 300 mg/kg PO single dose, after assay 2 hr post dose, read-out: Mean [Brain]): 6940 nM
concentration at 2 hr ([1]; Scn8a^N1768D/+, plasma, 2 mg/kg, 2 mg/kg PO every 12 hr, day 7, 2 hr after 13th dose, read-out: Mean [Plasma]): 2.95 nM
concentration at 2 hr ([1]; Scn8a^N1768D/+, plasma, 2 mg/kg, 2 mg/kg PO single dose, after assay 2 hr post dose, read-out: Mean [Plasma]): 1.08 nM
concentration at 2 hr ([1]; Scn8a^N1768D/+, plasma, 6 mg/kg, 6 mg/kg PO every 12 hr, day 7, 2 hr after 13th dose, read-out: Mean [Plasma]): 13.2 nM
concentration at 2 hr ([1]; Scn8a^N1768D/+, plasma, 200 mg/kg, 200 mg/kg PO single dose, after assay 2 hr post dose, read-out: Mean [Plasma]): 12600 nM
concentration at 2 hr ([1]; Scn8a^N1768D/+, plasma, 300 mg/kg, 300 mg/kg PO single dose, after assay 2 hr post dose, read-out: Mean [Plasma]): 31500 nM
accumulation in the plasma or tissue on repeated dosing ([1]; every 12 hr for 13 doses, mice and rats): did not appreciably accumulate
Mean [Brain] [2, 5]: 0.01911 µM
Mean [Plasma] [2, 5]: 0.01423 µM
Mean [Plasma] ([2]; 3 mg/kg PO single dose, 2 h, 3 mg/kg): 0.01728 µM and 0.009122 µM
Mean [Brain] [2, 6]: 0.02064 µM
Mean [Plasma] [2, 6]: 0.03091 µM
Mean [Plasma] ([2]; 5 mg/kg PO single dose, 2 h, 5 mg/kg): 0.0212 µM
Mean [Brain] [2, 7]: 0.05777 µM and 0.08031 µM
Mean [Plasma] [2, 7]: 0.1016 µM and 0.1012 µM
concentration at 2 h ([2]; brain, 3 mg/kg, 3 mg/kg PO every 12 hr, day 7, 2 h after 13th dose, read-out: Mean [Brain]): 12.8 nM
concentration at 2 h ([2]; brain, 5 mg/kg, 5 mg/kg PO every 12 hr, day 7, 2 h after 13th dose, read-out: Mean [Brain]): 37.7 nM
concentration at 2 h ([2]; brain, 10 mg/kg, 10 mg/kg PO every 12 hr, day 7, 2 h after 13th dose, read-out: Mean [Brain]): 37.7 nM
concentration at 2 h ([2]; brain, 10 mg/kg, 10 mg/kg PO single dose, 2 h, read-out: Mean [Brain]): 51.9 nM
concentration at 2 h ([2]; brain, 100 mg/kg, 100 mg/kg PO single dose, 2 h, read-out: Mean [Brain]): 646 nM
concentration at 2 h ([2]; brain, 200 mg/kg, 200 mg/kg PO single dose, 2 h, read-out: Mean [Brain]): 3880 nM
concentration at 2 h ([2]; plasma, 3 mg/kg, 3 mg/kg PO every 12 hr, day 7, 2 h after 13th dose, read-out: Mean [Plasma]): 17.7 nM
concentration at 2 h ([2]; plasma, 3 mg/kg, 3 mg/kg PO single dose, 2 h, read-out: Mean [Plasma]): 11.2 nM
concentration at 2 h ([2]; plasma, 5 mg/kg, 5 mg/kg PO every 12 hr, day 7, 2 h after 13th dose, read-out: Mean [Plasma]): 43 nM
concentration at 2 h ([2]; plasma, 5 mg/kg, 5 mg/kg PO single dose, 2 h, read-out: Mean [Plasma]): 36.8 nM
concentration at 2 h ([2]; plasma, 10 mg/kg, 10 mg/kg PO every 12 hr, day 7, 2 h after 13th dose, read-out: Mean [Plasma]): 151 nM
concentration at 2 h ([2]; plasma, 10 mg/kg, 10 mg/kg PO single dose, 2 h, read-out: Mean [Plasma]): 94.2 nM
concentration at 2 h ([2]; plasma, 100 mg/kg, 100 mg/kg PO single dose, 2 h, read-out: Mean [Plasma]): 3330 nM
concentration at 2 h ([2]; plasma, 200 mg/kg, 200 mg/kg PO single dose, 2 h, read-out: Mean [Plasma]): 34700 nM
